The values below come from PMC9516243, “Design of stapled peptide-based PROTACs for MDM2/MDMX atypical degradation and tumor suppression” (Theranostics, 2022).

The structures appear in SMILES notation. Where “and” joins values, the source holds several entries; their conditions need not be identical. Equal values may be shown once.

Data set [1] in a line: α-Helicity by CD spectroscopy. The class given is physicochemical. As to conditions: PB pH 7.2, 10-50 µM peptide, 20°C, calculated from [θ]222. The procedure: Peptides were dissolved in PB (pH = 7.2) to concentrations ranging from 10 to 50 µM. CD spectra were obtained on a Jasco J-715 spectropolarimeter at 20°C. The spectra were collected using a 0.1 cm path length quartz cuvette with the following measurement parameters: wavelength, 185-255 nm; step resolution, 0.1 nm; speed, 20 nm/min; accumulations, 6; bandwidth, 1 nm. The helical content of each peptide was calculated as reported previously.

In another data set the target is T1, ^24-108MDMX (Homo sapiens, UniProt O15151).
T1 construct: ^24-108MDMX, and a fluorescently tagged p53-derived peptide
T1 sequence (O15151 24-108): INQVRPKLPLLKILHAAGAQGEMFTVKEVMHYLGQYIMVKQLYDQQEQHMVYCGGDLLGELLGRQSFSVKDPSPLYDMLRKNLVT
Kind of data set: FP-based competitive binding assay. As to conditions: MDMX 40 nM, fluorescently tagged p53 peptide 20 nM, PBS pH 7.4, 30 min room temperature; mean of three independent measurements. On the procedure:
(§1) An FP-based competitive or binding assay was established using ^25-109MDM2, ^24-108MDMX, and a fluorescently tagged p53-derived peptide as previously described. [34]-[36] For dose-dependent competitive binding experiments, MDM2 or MDMX protein (40 nM) was first incubated with TAMRA-p53 peptide (20 nM) in PBS (pH 7.4) on a Costar 96-well plate, to which a serially diluted solution of test peptide was added to a final volume of 125 μL. After 30 min of incubation at room temperature, the FP values were measured at λex = 530 nm and λem = 580 nm on a Tecan Infinite M1000 plate reader. For binding experiments, FITC-labeled SPMI-HIF2-1 (20 nM) was incubated with different concentrations of MDM2, MDMX, and VHL proteins. Curve fitting was performed using GraphPad Prism software, and Ki values were calculated as described previously. Three replicates and three independent experiments were performed.

The next data set addresses T2, ^25-109MDM2 (Homo sapiens, UniProt Q00987).
T2 construct: established using ^25-109MDM2, ^24-108MDMX
Kind of data set: FP-based competitive binding assay. The conditions noted are these: MDM2 40 nM, fluorescently tagged p53 peptide 20 nM, PBS pH 7.4, 30 min room temperature; mean of three independent measurements. On the procedure:
as §1

The nature of another data set: Pharmacokinetic study. The class given is in vivo. The conditions noted are these: mouse, iv, male ICR mice, 1.8 mg/kg single i.v. tail vein, plasma, UPLC-ESI-QqQ-MS, n = 5; for Cmax: mean; for half-life: read-out: half-life (t1/2) (converted). On the procedure: The peptides (1.8 mg/kg) were individually dosed in mice intravenously via tail vein injection and the blood samples were collected from the orbital venous plexus at 0, 0.5, 1, 2, 4, 6, 10, 24, and 48 h. All blood samples were centrifuged at 3000 rpm for 10 min, and the obtained plasma samples were immediately frozen at -80 °C until use. The standard curve was established as follows: Stock solutions of PMI-HIF1-1 and SPMI-HIF2-1 dissolved in acetonitrile were spiked into control plasma at final concentrations of 4000, 2000, 1000, 500, 250, 125, 62.5, 31.25, 15.625, 7.8125, 3.90625, 1.953125, and 0.9765625 ng/ml. […] Plasma samples (30 μL) were treated with 90 μL acetonitrile for protein precipitation. Then all samples were vortexed for 2 min and centrifuged for 15 min at 13000 rpm and 4°C. The supernatants were analyzed by ultraperformance liquid chromatography-electrospray ionization-tandem triple quadrupole mass spectrometry (UPLC-ESI-QqQ-MS, Shimadzu 8040). The system was equipped with an XBridge BEH C18 column (2.5 μm, 2.1×100 mm; Waters, Milford, MA, USA). The column temperature was set at 35°C. The injection volume was 4 μl. […] The plasma concentration at each time point was calculated from the extracted peak area of the same mass peaks of each peptide using the corresponding standard curve.

The next data set is described as follows: circular dichroism. The conditions noted are these: phosphate buffer (PB); pH 7.2; 20 °C; 10-50 uM. In general terms: CD spectra are sensitive to the conformation of chiral molecules.
The next data set relates to α-Chymotrypsin. Nature of the data set: Proteolytic stability against chymotrypsin. The class given is in vitro ADME. The conditions noted are these: chymotrypsin 5 ng/μl (10 μl) added to 1 ml of 1 mM peptide, PBS 50 mM pH 7.4, 2 mM CaCl2, 25°C, HPLC, within 10 min, read-out: peptide digested within 10 min. On the procedure:
Peptides were dissolved in PBS (50 mM, pH = 7.4) to a final concentration of 1 mM. α-Chymotrypsin was dissolved in PBS (50 mM, containing 2 mM of CaCl2, pH = 7.4) to a final concentration of 5 ng/μl. Then the peptide solutions (1 ml) were incubated with […] (10 μl) at 25°C. Samples were taken at 0, 5, 30, 60, 90, and 120 min and reactions were quenched with 20 μL of hydrochloric acid (1 M). The solution of the trypsin peptide fragments was monitored by HPLC at different time points to determine the fraction of protease degradation.

Another data set concerns HCT116 p53^-/- cells. Kind of data set: Cell viability assay (CCK-8). As to conditions: CCK-8, 72 h incubation, absorbance 450 nm; read-out: IC50 (μM) HCT116 p53^-/-. The class given is cell-based, human. On the procedure:
(§2) The human colon carcinoma cell line HCT116 p53^+/+ was obtained from the Cell Bank of the Chinese Academy of Sciences (Shanghai, China). HCT116 p53^-/- cells were generously provided by Prof. Vogelstein of Johns Hopkins University. Both cell lines were cultured in McCoy's 5A medium (Gibco, USA) containing 10% FBS, 100 units/ml penicillin, and 100 μg/ml streptomycin at 37 °C in a humidified incubator containing 5% CO2. Cell viability was measured using a Cell Counting Kit-8 (CCK-8) (Dojindo, Kumamoto, Japan) according to the manufacturer's instructions. In brief, the cells (5 × 10^3 cells/well in […] medium) were cultured for 24 h in 96-well microplates in a humidified 5% CO2 incubator at 37 °C and then treated with varying concentrations of compounds or 0.1% DMSO vehicle control.

A further data set deals with HCT116 p53^+/+ cells. Kind of data set: Cell viability assay (CCK-8). The class given is cell-based, human. The conditions noted are these: CCK-8, 72 h incubation, absorbance 450 nm; read-out: IC50 (μM) HCT116 p53^+/+. On the procedure:
as §2

On to `CC(=O)N[C@H](C(=O)N[C@@H](CO)C(=O)N[C@@H](Cc1ccccc1)C(=O)N[C@@H](C)C(=O)N[C@@H](CCC(=O)O)C(=O)N[C@@H](Cc1ccc(O)cc1)C(=O)N[C@@H](Cc1c[nH]c2ccccc12)C(=O)N[C@@H](C)C(=O)N[C@@H](CC(C)C)C(=O)N[C@@H](CC(C)C)C(=O)N[C@@H](CO)C(=O)NCCOCC(=O)N[C@@H](CC(C)C)C(=O)N[C@@H](C)C(=O)N1C[C@H](O)C[C@H]1C(=O)N[C@@H](Cc1ccc(O)cc1)C(=O)N[C@@H](CCC(C)C)C(=O)N1CCC[C@H]1C(N)=O)[C@@H](C)O` [PMI-HIF1-1], for which, in data set [1], the “α-helicity (%)” value is reported as 17%. In addition, the Ki on ^24-108MDMX was 290 nM and 620 nM. On ^25-109MDM2, this molecule showed a Ki of 450 nM. In addition, in the data set “Pharmacokinetic study”, the Cmax was found to be 14700 ng/mL, the AUC(0-inf) came out at 8600 ng·h/mL, the MRT worked out at 0.7 h and the half-life is 1.3 h. Moreover, the helicity in “circular dichroism” was determined as 17%. In the data set with α-Chymotrypsin, the metabolised at 10 min, 1 mM was over 80%. For the same molecule, the IC50 in the data set on HCT116 p53^-/- cells is over 100 µM. For the same molecule, the IC50 in the data set with HCT116 p53^+/+ cells was over 100 µM.
Take `CC(=O)N[C@H](C(=O)N[C@@H](CO)C(=O)N[C@@H](Cc1ccccc1)C(=O)N[C@]1(C)CCCCCCC=CCCC[C@@](C)(C(N)=O)NC(=O)[C@H](CC(C)C)NC(=O)[C@H](CC(C)C)NC(=O)[C@H](C)NC(=O)[C@H](Cc2c[nH]c3ccccc23)NC(=O)[C@H](Cc2ccc(O)cc2)NC(=O)[C@H](CCC(=O)O)NC1=O)[C@@H](C)O` [SPMI2]: in data set [1], the “α-helicity (%)” value is reported as 5%. Further, the Ki on ^24-108MDMX was 620 nM and 290 nM. For the same molecule, in “Pharmacokinetic study”, the peak level (Cmax) was 30000 ng/mL, the AUC(0-inf) stood at 78600 ng·h/mL, the mean residence time (MRT) came to 10.9 h and the half-life was 7.9 h. In addition, the IC50 in the data set with HCT116 p53^-/- cells was over 100 µM. Besides, the IC50 in the data set with HCT116 p53^+/+ cells came out at 28.4 µM.

Usually Ki stands for a dissociation constant, usually derived from enzyme kinetics or from competition with a known ligand. In general, Cmax refers to the maximum level reached in the sampled fluid or tissue. Usually AUC(0-inf) stands for total exposure, with the tail of the curve extrapolated. A lower AUC(0-inf) goes with less exposure. In general, MRT refers to a mean duration of stay, worked out from the concentration-time curve.
